In ChEMBL document CHEMBL5058642, “Data for DCP probe TP-051” (2022):

Legend:
[1] = target: Platelet-activating factor receptor (Homo sapiens) (UniProt P25105); experiment: Inhibition of Platelet Activating Factor (PAF) at 10 µM in the Eurofins-Panlabs radioligand binding assay (Eurofins_assay_265010); details: Compound concentration 10.0 uM
Rattus norvegicus [2] = species on record: Rattus norvegicus; experiment: Inhibition of Imidazoline I2, Central at 10 µM in the Eurofins-Panlabs radioligand binding assay (Eurofins_assay_241000); set-up: ligand concentration 2 nM; details: Compound concentration 10.0 uM
[3] = target: T1, D(4) dopamine receptor (Homo sapiens) (UniProt P21917); experiment: Inhibition of Dopamine D4.2 at 10 µM in the Eurofins-Panlabs radioligand binding assay (Eurofins_assay_219900); set-up: ligand concentration 0.5 nM; details: Compound concentration 10.0 uM
T1 sequence (whole entry): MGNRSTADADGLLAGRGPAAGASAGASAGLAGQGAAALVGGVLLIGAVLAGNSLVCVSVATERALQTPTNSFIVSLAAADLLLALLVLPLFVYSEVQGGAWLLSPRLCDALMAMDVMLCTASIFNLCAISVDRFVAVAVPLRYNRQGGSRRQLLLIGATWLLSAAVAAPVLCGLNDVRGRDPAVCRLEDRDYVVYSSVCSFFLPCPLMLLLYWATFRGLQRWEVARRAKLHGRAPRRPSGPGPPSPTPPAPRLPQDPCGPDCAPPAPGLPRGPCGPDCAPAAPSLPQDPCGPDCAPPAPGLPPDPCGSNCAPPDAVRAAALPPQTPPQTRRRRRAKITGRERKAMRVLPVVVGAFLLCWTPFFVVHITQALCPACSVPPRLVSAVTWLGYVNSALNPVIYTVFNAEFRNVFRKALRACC

Mus musculus = species on record: Mus musculus; experiment: Inhibition of Phorbol Ester at 10 µM in the Eurofins-Panlabs radioligand binding assay (Eurofins_assay_264500); set-up: ligand concentration 3 nM; details: Compound concentration 10.0 uM
[4] = target: Sigma non-opioid intracellular receptor 1 (Homo sapiens) (UniProt Q99720); details: Compound concentration 10.0 uM
Rattus norvegicus [5] = species on record: Rattus norvegicus; experiment: Inhibition of Glycine, Strychnine-Sensitive at 10 µM in the Eurofins-Panlabs radioligand binding assay (Eurofins_assay_239000); details: Compound concentration 10.0 uM
D(3) dopamine receptor = D(3) dopamine receptor (Homo sapiens, UniProt P35462); details: Compound concentration 10.0 uM
[6] = target: Mu-type opioid receptor (Homo sapiens) (UniProt P35372); details: Compound concentration 10.0 uM
[7] = target: 5-hydroxytryptamine receptor 1D (Homo sapiens) (UniProt P28221); details: Compound concentration 10.0 uM
[8] = target: Glutamate receptor ionotropic, kainate (Rattus norvegicus) (UniProt P22756+Q01812+P42260+P42264+Q63273); experiment: Inhibition of Glutamate, Kainate at 10 µM in the Eurofins-Panlabs radioligand binding assay (Eurofins_assay_232700); details: Compound concentration 10.0 uM
[9] = target: T2, 5-hydroxytryptamine receptor 3A (Homo sapiens) (UniProt P46098); details: Compound concentration 10.0 uM
T2 sequence (whole entry): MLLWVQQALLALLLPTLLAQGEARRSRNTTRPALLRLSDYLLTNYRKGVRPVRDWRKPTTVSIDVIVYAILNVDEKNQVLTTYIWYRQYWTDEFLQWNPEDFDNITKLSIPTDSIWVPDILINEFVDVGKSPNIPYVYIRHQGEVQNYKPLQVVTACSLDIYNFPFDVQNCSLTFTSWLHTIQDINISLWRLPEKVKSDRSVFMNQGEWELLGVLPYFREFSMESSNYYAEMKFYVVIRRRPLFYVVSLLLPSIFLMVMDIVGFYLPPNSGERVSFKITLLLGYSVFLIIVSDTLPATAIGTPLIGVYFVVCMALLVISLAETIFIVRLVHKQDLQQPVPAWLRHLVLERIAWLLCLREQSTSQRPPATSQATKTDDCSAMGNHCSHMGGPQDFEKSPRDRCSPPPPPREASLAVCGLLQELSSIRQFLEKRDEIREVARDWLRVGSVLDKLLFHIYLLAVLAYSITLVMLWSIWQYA

[10] = target: T3, Muscarinic acetylcholine receptor M1 (Homo sapiens) (UniProt P11229); details: Compound concentration 10.0 uM
T3 sequence (whole entry): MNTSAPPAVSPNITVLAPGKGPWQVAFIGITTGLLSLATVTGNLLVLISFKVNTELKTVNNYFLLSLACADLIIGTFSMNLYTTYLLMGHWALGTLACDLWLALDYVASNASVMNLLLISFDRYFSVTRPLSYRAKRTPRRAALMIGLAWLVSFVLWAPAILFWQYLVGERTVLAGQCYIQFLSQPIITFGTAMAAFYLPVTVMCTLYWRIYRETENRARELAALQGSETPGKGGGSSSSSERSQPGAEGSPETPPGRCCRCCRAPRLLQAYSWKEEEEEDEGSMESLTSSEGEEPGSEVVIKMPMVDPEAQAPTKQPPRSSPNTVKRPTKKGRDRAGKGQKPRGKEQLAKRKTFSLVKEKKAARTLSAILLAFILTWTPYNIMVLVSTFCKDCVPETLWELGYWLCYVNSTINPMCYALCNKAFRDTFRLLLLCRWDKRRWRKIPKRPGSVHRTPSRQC

[11] = target: Type-2 angiotensin II receptor (Homo sapiens) (UniProt P50052); experiment: Angiotensin AT2 Eurofins-Panlabs radioligand binding assay; format: protein assay; details: Compound concentration 10.0 uM
Rattus norvegicus [12] = species on record: Rattus norvegicus; experiment: Inhibition of Glutamate, NMDA, Phencyclidine at 10 µM in the Eurofins-Panlabs radioligand binding assay (Eurofins_assay_233000); format: protein-complex assay; details: Compound concentration 10.0 uM
[13] = target: Endothelin-1 receptor (Homo sapiens) (UniProt P25101); details: Compound concentration 10.0 uM
Homo sapiens = species on record: Homo sapiens; experiment: Prostanoid, Thromboxane A2 (TP) Eurofins-Panlabs radioligand binding assay; set-up: ligand concentration 5 nM, non-specific ligand with concentration 1 µM SQ-29548, incubation time 30 min, incubation temperature 25 °C; details: Compound concentration 10.0 uM
[14] = target: Alpha-2A adrenergic receptor (Homo sapiens) (UniProt P08913); details: Compound concentration 10.0 uM
[15] = target: Progesterone receptor (Homo sapiens) (UniProt P06401); experiment: Inhibition of Progesterone PR-B at 10 µM in the Eurofins-Panlabs radioligand binding assay (Eurofins_assay_268020); set-up: ligand concentration 1.4 nM; details: Compound concentration 10.0 uM
[16] = target: Beta-2 adrenergic receptor (Homo sapiens, UniProt P07550); details: Compound concentration 10.0 uM
[17] = target: Vasopressin V1a receptor (Homo sapiens) (UniProt P37288); experiment: Vasopressin V1A Eurofins-Panlabs radioligand binding assay; set-up: ligand concentration 0.01 nM; details: Compound concentration 10.0 uM
[18] = target: Cholecystokinin receptor type A (Homo sapiens) (UniProt P32238); experiment: Inhibition of Cholecystokinin CCK1 (CCKA) at 10 µM in the Eurofins-Panlabs radioligand binding assay (Eurofins_assay_218020); details: Compound concentration 10.0 uM
[19] = target: D(1A) dopamine receptor (Homo sapiens) (UniProt P21728); details: Compound concentration 10.0 uM
[20] = target: Substance-K receptor (Homo sapiens) (UniProt P21452); experiment: Inhibition of Tachykinin NK2 at 10 µM in the Eurofins-Panlabs radioligand binding assay (Eurofins_assay_255600); set-up: ligand concentration 0.5 nM; details: Compound concentration 10.0 uM
[21] = target: ATP-sensitive inward rectifier potassium channel 11 (Cricetulus griseus) (UniProt A0A3L7HHE1); experiment: Inhibition of Potassium Channel [KATP] at 10 µM in the Eurofins-Panlabs radioligand binding assay (Eurofins_assay_265600); details: Cricetinae; Compound concentration 10.0 uM
Rattus norvegicus [22] = species on record: Rattus norvegicus; experiment: Potassium Channel [SKCA] Eurofins-Panlabs radioligand binding assay; set-up: ligand concentration 0.005 nM; details: Compound concentration 10.0 uM

Measured: inhibition

Chain of Endothelin-1 receptor (Homo sapiens) (P25101 whole entry): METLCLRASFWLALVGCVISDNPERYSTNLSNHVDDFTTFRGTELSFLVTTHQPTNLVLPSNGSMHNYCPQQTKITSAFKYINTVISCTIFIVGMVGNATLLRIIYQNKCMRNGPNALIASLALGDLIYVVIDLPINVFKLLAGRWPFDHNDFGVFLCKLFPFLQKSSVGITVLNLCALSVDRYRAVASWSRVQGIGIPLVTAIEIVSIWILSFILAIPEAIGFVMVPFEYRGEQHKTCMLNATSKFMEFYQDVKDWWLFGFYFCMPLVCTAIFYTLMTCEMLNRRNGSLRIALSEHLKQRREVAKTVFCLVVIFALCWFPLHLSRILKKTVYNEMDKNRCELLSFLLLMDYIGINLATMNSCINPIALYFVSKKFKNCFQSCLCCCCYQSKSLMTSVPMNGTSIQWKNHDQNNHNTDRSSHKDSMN
Chain of Sigma non-opioid intracellular receptor 1 (Homo sapiens) (Q99720 whole entry): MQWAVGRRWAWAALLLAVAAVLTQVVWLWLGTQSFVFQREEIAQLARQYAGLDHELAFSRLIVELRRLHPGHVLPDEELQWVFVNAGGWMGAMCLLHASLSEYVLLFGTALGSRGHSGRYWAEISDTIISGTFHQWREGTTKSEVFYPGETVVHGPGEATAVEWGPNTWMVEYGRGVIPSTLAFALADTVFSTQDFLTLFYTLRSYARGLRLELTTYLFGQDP
Chain of Mu-type opioid receptor (Homo sapiens) (P35372 whole entry): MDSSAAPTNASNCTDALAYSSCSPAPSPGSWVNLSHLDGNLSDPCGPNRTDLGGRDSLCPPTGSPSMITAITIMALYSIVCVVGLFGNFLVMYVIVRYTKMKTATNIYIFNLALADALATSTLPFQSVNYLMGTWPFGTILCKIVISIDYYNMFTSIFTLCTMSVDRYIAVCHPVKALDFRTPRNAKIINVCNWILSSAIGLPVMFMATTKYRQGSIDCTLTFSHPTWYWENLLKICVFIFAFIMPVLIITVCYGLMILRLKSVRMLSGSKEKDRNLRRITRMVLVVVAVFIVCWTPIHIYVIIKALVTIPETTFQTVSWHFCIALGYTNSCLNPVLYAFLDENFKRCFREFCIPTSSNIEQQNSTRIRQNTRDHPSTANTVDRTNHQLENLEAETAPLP
Chain of 5-hydroxytryptamine receptor 1D (Homo sapiens) (P28221 whole entry): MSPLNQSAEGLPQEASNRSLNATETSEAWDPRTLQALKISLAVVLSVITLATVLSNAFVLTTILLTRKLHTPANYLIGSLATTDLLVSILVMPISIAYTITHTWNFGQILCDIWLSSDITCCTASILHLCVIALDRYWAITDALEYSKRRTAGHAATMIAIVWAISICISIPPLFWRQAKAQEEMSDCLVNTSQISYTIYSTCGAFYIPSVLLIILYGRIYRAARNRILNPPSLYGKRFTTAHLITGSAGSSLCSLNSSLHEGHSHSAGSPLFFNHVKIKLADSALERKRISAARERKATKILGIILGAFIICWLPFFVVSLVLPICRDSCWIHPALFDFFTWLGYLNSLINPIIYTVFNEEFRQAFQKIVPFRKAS
Chain of Beta-2 adrenergic receptor (P07550 whole entry, looked up): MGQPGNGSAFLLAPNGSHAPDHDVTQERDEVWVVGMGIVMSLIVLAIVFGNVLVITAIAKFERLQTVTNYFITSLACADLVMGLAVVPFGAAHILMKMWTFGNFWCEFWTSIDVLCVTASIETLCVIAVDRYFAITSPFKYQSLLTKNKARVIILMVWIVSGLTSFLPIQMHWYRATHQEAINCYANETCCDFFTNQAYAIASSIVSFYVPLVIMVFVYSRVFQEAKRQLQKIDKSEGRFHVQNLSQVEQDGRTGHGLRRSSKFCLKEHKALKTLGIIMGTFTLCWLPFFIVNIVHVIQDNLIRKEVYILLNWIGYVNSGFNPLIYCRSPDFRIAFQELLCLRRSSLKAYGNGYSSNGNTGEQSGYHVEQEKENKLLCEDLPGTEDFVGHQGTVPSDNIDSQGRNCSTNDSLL
Chain of Alpha-2A adrenergic receptor (Homo sapiens) (P08913 whole entry): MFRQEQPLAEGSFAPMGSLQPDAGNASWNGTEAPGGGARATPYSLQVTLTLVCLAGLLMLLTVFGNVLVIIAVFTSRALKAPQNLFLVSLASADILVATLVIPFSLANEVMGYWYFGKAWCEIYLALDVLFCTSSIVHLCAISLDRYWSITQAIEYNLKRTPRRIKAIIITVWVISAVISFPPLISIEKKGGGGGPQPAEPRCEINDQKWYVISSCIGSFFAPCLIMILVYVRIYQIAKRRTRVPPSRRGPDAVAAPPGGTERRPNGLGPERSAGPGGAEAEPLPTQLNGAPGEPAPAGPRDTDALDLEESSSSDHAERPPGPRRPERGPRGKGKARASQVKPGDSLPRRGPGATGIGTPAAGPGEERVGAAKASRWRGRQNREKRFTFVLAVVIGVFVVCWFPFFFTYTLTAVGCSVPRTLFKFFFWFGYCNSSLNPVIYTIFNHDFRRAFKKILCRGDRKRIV
Chain of Cholecystokinin receptor type A (Homo sapiens) (P32238 whole entry): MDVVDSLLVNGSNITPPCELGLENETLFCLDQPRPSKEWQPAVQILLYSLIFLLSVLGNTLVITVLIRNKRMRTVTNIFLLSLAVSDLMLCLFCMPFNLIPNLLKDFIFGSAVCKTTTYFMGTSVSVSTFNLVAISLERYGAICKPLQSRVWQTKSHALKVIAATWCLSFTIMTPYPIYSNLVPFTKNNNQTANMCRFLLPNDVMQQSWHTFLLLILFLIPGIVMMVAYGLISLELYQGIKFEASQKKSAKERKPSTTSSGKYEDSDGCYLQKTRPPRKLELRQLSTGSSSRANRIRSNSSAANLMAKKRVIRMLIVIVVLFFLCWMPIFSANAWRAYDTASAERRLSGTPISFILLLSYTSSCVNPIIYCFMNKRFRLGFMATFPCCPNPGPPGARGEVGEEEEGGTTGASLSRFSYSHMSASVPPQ
Chain of Type-2 angiotensin II receptor (Homo sapiens) (P50052 whole entry): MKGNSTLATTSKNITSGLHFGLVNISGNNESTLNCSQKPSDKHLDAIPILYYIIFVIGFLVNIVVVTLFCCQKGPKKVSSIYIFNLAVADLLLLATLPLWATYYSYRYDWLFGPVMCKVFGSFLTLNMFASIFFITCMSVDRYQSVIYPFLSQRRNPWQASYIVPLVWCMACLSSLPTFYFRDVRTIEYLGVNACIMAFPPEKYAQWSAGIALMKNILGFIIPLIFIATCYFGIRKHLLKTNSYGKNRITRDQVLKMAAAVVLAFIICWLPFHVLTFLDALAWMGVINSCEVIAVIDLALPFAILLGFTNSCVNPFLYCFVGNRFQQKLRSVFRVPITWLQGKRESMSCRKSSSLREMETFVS
Chain of Progesterone receptor (Homo sapiens) (P06401 whole entry): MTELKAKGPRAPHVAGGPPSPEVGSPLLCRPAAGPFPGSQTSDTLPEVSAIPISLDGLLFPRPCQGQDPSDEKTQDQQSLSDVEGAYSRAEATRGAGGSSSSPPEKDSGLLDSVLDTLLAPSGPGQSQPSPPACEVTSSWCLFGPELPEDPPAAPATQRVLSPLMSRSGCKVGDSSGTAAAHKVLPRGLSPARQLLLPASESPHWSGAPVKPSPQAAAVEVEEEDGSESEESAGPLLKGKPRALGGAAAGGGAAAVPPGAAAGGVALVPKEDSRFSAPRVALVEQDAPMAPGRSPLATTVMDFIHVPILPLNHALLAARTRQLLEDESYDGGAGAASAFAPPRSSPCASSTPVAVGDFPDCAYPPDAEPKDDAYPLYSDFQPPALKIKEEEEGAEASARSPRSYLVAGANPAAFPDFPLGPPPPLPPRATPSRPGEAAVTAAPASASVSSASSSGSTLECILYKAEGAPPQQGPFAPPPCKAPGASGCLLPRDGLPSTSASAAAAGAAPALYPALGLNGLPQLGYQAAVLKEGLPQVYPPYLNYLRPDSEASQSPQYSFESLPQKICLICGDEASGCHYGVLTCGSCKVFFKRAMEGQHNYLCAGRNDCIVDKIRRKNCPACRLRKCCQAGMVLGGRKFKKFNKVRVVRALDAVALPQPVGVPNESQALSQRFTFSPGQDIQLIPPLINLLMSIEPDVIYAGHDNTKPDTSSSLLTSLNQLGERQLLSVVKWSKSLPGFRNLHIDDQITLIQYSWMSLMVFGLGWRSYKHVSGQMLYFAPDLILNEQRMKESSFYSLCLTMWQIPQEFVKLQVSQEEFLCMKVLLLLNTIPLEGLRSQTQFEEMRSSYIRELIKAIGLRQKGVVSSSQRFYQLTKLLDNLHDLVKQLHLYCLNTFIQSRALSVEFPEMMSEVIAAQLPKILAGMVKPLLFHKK
Chain of ATP-sensitive inward rectifier potassium channel 11 (Cricetulus griseus) (A0A3L7HHE1 as listed by the source): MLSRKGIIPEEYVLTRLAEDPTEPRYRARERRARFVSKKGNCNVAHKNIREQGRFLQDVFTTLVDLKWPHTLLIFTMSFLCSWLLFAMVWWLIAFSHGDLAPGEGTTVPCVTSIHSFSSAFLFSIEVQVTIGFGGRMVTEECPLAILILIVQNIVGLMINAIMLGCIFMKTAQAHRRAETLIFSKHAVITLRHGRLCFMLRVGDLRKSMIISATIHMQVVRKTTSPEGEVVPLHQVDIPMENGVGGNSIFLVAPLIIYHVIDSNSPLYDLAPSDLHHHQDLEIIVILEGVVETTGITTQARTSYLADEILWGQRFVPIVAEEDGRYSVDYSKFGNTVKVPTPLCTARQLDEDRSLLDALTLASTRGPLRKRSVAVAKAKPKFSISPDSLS
Chain of Vasopressin V1a receptor (Homo sapiens) (P37288 whole entry, looked up): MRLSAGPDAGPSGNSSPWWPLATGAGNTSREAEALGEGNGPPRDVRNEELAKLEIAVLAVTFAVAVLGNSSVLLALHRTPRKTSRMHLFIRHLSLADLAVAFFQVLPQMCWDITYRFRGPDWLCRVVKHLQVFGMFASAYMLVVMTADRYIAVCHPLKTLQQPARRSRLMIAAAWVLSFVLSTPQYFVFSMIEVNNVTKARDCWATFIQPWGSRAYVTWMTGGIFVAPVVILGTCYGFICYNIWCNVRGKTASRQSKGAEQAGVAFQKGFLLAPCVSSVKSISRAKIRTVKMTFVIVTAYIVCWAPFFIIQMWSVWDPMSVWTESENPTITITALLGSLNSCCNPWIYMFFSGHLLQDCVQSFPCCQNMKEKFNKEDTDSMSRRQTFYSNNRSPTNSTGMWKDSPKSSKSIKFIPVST

Cc1cc(OC2CCS(=O)(=O)CC2)cc(C)c1-c1cccc(COc2ccc(CCC(=O)O)c(F)c2)c1
active: Homo sapiens 60%
inactive: [1] 4% | Rattus norvegicus [2] -7% | [3] 9% | Mus musculus -9% | [4] 8.9% | Rattus norvegicus [5] 7% | D(3) dopamine receptor -7% | [6] 5% | [7] 35.8% | [8] -10% | [9] 6.06% | [10] 15.8% | [11] -4% | Rattus norvegicus [12] -4% | [13] -2% | [14] 13% | [15] 10% | [16] 3% | [17] 0% | [18] 4% | [19] 24% | [20] 29% | [21] 19% | Rattus norvegicus [22] -5%

Cc1cc(OC2CCS(=O)(=O)CC2)cc(C)c1-c1cccc(COc2ccc(C(=O)O)c(F)c2)c1
inactive: [1] 2% | Rattus norvegicus [2] 3% | [3] 6% | Mus musculus -3% | [4] 16.7% | Rattus norvegicus [5] 5% | D(3) dopamine receptor 4% | [6] 10% | [7] 29.5% | [8] 8% | [9] -5.96% | [10] -1.5% | [11] 1% | Rattus norvegicus [12] 5% | [13] -2% | Homo sapiens 28% | [14] 13.1% | [15] 6% | [16] -7% | [17] -4% | [18] -9% | [19] -3% | [20] 3% | [21] -3% | Rattus norvegicus [22] 1%
